Data taken from US20240383953A1, “NOVEL NAN[…] NANOG PRION-LIKE REPEATS” (BAYLOR COLLEGE OF MEDICINE, priority 2021, published 2024).
Read-outs that look alike come from different tables or passages of the source. Residues, ends and D or L forms follow the SMILES beside them.

How the values were obtained:
[1] = WR peptide solubility (supernatant to pellet ratio after centrifugation); assay type: physicochemical; conditions: 0.1 and 0.2 mg/mL
Method: FIGS. 7A-7H provide data and illustrations related to the fibrillation propensities of NANOG WR-derived peptides. FIG. 7A illustrates NANOG domain organization and the human and mouse NANOG WR-derived peptides used in Example 2. […] Right panels show aggregation kinetics for peptides 1-3 w (top) and 1-4 w (bottom) after 1 min equilibration. Similar results were obtained from two independent experiments. […] Similar results were obtained from two independent experiments. […] Similar results were obtained from two independent experiments. […] Similar results were obtained from two independent preparations. […]
(§1) Amino acids of the synthesized peptides were classified into aromatic, polar, charged and structure breakers (FIG. 7B). Applicant observed a striking degree of correlation between amino acid type distribution, and the peptide's solubilities and aggregation propensities, as monitored by Thioflavin T (ThT, amyloid binding dye) aggregation kinetics assay (FIGS. 7B-7D). Formation of β-sheet fibrils were confirmed by CD spectroscopy and Transmission Electron Microscopy. Hydrophobic/aromatic residues as well as polar residues such as Gln and Asn are commonly found in amyloid or prion-like domains. On the other hand, charged and ‘structure breaker’ residues such as Gly and Pro contribute to the peptide's higher solubility. […] Aggregation kinetics was rapid; 1-4w reached maximal ThT fluorescence within 2-3 min and 1-3w ˜20 min (FIG. 7D).

[2] = system: Gata6-AF488 and Gata6-AF647 DNA; experiment: Intermolecular diffusion smFRET DNA bridging; assay type: binding; conditions: 250 nM NANOG WT
Method: (§2) FIGS. 6A-6G provide data related to intermolecular DNA bridging through NANOG assemblies. […] The peak at EFRET ˜0 corresponds to AF488-conjugated unbound/bound DNA. FIGS. 6E1-4 show representative cross-correlation FCCS curves of Gata6-AF488 and Gata6-AF647 with various concentrations of WT ((i) 0 nM; (ii) 63 nM; (iii) 875 nM) and W8A mutant ((iv) 875 nM). […] Nad and diffusion coefficients were derived and calculated from FCCS fits (Methods). […] Through prion-like assembly, NANOG can initiate intragenomic (promoter-enhancer) contacts, as well as connecting distant intergenomic loci to form superenhancer clusters with other TFs and coactivators (green/yellow).
To test the DNA bridging hypothesis, Applicant performed single molecule FRET (smFRET) diffusion experiments. Intermolecular diffusion smFRET is challenging due to low chance encounters at dilute pM concentrations. Gata6 DNAs were independently labeled with AF488 or AF647. […] However, in the presence of 250 nM NANOG WT.

[3] = system: Gata6-AF488 and Gata6-AF647 DNA; experiment: FCCS DNA bridging by NANOG; assay type: binding
Method: as §2
To further validate NANOG-dependent DNA bridging, Applicant resorted to fluorescence cross-correlation technique (FCCS). Binding of individual DNAs (differentially labeled with AF488 and AF647) to form a complex would result in correlated fluorescence signals.
FCCS experiments with various NANOG concentrations confirmed cross-correlation with as little as ˜30 nM WT NANOG (FIG. 6F). The increase in cross-correlated particles coincided with a decrease in molecular complex diffusion coefficient (bright lower line, FIG. 6F). Without being bound by theory, the decrease in cross-correlated particles at high NANOG concentrations may reflect competition for DNA with excess NANOG.

[4] = target: dsDNA GATA6-AF488/GATA6-AF647; experiment: fEMSA with dsDNA; assay type: binding
Method: (§3) Basic residues, 3 Arg and 2 Lys, were incorporated for nucleic acid recognition. […] Similar results were obtained from two independent experiments. FIG. 8C (left panels) show photon bursts distribution of dsDNAs alone (GATA6-AF488 and GATA6-AF647; top) or with 7.5 μM (0.03 mg/mL) 1-4wRK peptide (bottom). Middle panels of FIG. 8C show FCCS curves for corresponding photon fluctuations shown in the left panels. […] Similar results were obtained from three independent experiments. […] Similar results were obtained from three independent experiments. […] Error bars were calculated from three independent measurements. […] Similar results were obtained from two independent experiments.
(§4) ThT binding to amyloid β-sheet emits maximally at ˜490 nm. Similar results were obtained from 2 independent experiments. […] Similar results were obtained from 2 independent experiments.
(§5) Applicant observed nucleic acid interactions by fluorescence electrophoretic mobility shift assays (fEMSA). […] Moreover, the 1-4wRK peptide was also potent in recognizing single stranded DNA (ssDNA (TG)6) and RNA (ssRNA (UUAGGG)4-AF488/AF594).
(§6) By EMSA, almost all DNAs were bound at […] or 0.03 mg/mL 1-3wRRK. […] This was further corroborated by fluorescence polarization measurements.

[5] = WR peptide aggregation kinetics by ThT fluorescence; assay type: physicochemical
Method: FIGS. 7A-7H provide data and illustrations related to the fibrillation propensities of NANOG WR-derived peptides. FIG. 7A illustrates NANOG domain organization and the human and mouse NANOG WR-derived peptides used in Example 2. […] Right panels show aggregation kinetics for peptides 1-3 w (top) and 1-4 w (bottom) after 1 min equilibration. Similar results were obtained from two independent experiments. […] Similar results were obtained from two independent experiments. […] Similar results were obtained from two independent experiments. […] Similar results were obtained from two independent preparations.
as §1, with “domains.” for “domains. On the other hand, charged and ‘structure breaker’ residues such as Gly and Pro contribute to the peptide's higher solubility.”

[6] = system: ssDNA (TG)6 and ssRNA (UUAGGG)4-AF488/AF594; experiment: fEMSA with single stranded nucleic acids; assay type: binding; conditions: immobilized in the gel wells
Method: as §3, §5

[7] = system: fluorescent proteins h6GeGFP and h6GmCherry; experiment: Co-partitioning with fluorescent proteins; conditions: h6GeGFP and h6GmCherry 5 μM
Method: as §3
Applicant used burst analysis to quantify sizes of the oligomeric species. The average fluctuations were assumed to represent monomeric species, and any degree of deviations from average were characterized as the oligomeric states. Applicant observed numerous heterogeneous oligomeric states that increased in molecular sizes with increasing peptide concentration (FIGS. 8D-8E). Because NANOG is also known as a ‘molecular hub’ protein capable of interactions with many proteins with its WR domain, Applicant tested whether the WR peptide mimetics could non-specifically recruit random proteins (e.g., fluorescent proteins h6GeGFP and h6GmCherry for convenient visualization). […]

DNA = experiment: LLPS turbidity assay (UV absorbance at 350 nm); assay type: physicochemical
Method: as §4
The significant 1-3wRK DNA-bridging competency was further confirmed by FCCS titration data and burst analysis, where Applicant observed cross-correlation even at ˜30 nM 1-3wRRK. Applicant next investigated whether the peptides' ability to form nano-assemblies also correlated with their capacity to drive mesoscale condensates. Applicant demarcated the LLPS regimes using turbidity assay (UV absorbance at 350 nm; FIG. 8J). The LLPS data (presented in mg/mL concentration unit in FIG. 8J) reflected the behaviors observed at nanoscale level.

[8] = system: GATA6-AF488 and GATA6-AF647; experiment: FCCS DNA bridging by peptides; assay type: binding
Method: as §3
ThT binding to amyloid β-sheet emits maximally at ˜490 nm. Similar results were obtained from 2 independent experiments. […]
Applicant also tested the minipeptides' ability to bring together independent DNA molecules in solution. Using Fluorescence Cross-Correlation Spectroscopy (FCCS), Applicant observed an absence of cross-correlation between differentially fluorescently labeled DNAs (GATA6-AF488 and GATA6-AF647) without the peptide. […]
The significant 1-3wRK DNA-bridging competency was further confirmed by FCCS titration data and burst analysis, where Applicant observed cross-correlation even at ˜30 nM 1-3wRRK. […] Applicant demarcated the LLPS regimes using turbidity assay (UV absorbance at 350 nm; FIG. 8J). […]

GATA6 dsDNA = experiment: Fluorescence polarization binding measurements; conditions: Hill binding equation, mean±SD
From the text: as §4
Since 1-3wRRK became soluble and much less aggregation-prone on its own, Applicant determined if the WR repeat (steric zipper region) was affected by changes in physical properties and still contributed towards recognizing DNA. Applicant compared its DNA binding capability to TAT and 1-4wRK by EMSA and fluorescence polarization measurements (FIGS. 9G-9H). Applicant observed that 1-3wRRK binds DNA more effectively than 1-4wRK, mostly likely due to the extra basic residues (FIGS. 8B, 9G, and 9H).
as §6

C[C@@H](O)[C@H](NC(=O)[C@H](CCC(N)=O)NC(=O)[C@H](CC(N)=O)NC(=O)[C@H](CO)NC(=O)[C@@H](N)Cc1c[nH]c2ccccc12)C(=O)N[C@@H](CCCCN)C(=O)O [1w, WSNQTK] (H-WSNQTK-OH; N-terminus and C-terminus assumed)
peptide solubility [1]: very soluble

C[C@@H](O)[C@H](NC(=O)[C@H](CCC(N)=O)NC(=O)[C@H](CC(N)=O)NC(=O)[C@H](CC(N)=O)NC(=O)[C@H](Cc1c[nH]c2ccccc12)NC(=O)[C@@H](NC(=O)[C@@H]1CCCN1C(=O)[C@H](CC(N)=O)NC(=O)[C@@H](NC(=O)[C@H](Cc1c[nH]c2ccccc12)NC(=O)[C@@H](NC(=O)[C@H](CCC(N)=O)NC(=O)[C@H](CO)NC(=O)[C@H](CO)NC(=O)[C@H](Cc1c[nH]c2ccccc12)NC(=O)[C@@H](NC(=O)[C@@H]1CCCN1C(=O)[C@H](CC(N)=O)NC(=O)[C@@H](NC(=O)[C@H](Cc1c[nH]c2ccccc12)NC(=O)[C@@H](NC(=O)[C@H](CCC(N)=O)NC(=O)[C@H](CO)NC(=O)CNC(=O)[C@@H](N)Cc1c[nH]c2ccccc12)[C@@H](C)O)[C@@H](C)O)[C@@H](C)O)[C@@H](C)O)[C@@H](C)O)[C@@H](C)O)C(=O)N[C@@H](CCCCN)C(=O)O [m1-5w] (H-WGSQTWTNPTWSSQTWTNPTWNNQTK-OH; N-terminus and C-terminus assumed)
peptide solubility [1]: relatively higher solubility

C[C@H](NC(=O)[C@H](CCC(N)=O)NC(=O)[C@H](CO)NC(=O)[C@H](CO)NC(=O)[C@H](Cc1c[nH]c2ccccc12)NC(=O)[C@@H](NC(=O)[C@@H]1CCCN1C(=O)[C@H](CC(N)=O)NC(=O)[C@@H](NC(=O)[C@@H](N)Cc1c[nH]c2ccccc12)[C@@H](C)O)[C@@H](C)O)C(=O)N[C@@H](Cc1c[nH]c2ccccc12)C(=O)N[C@H](C(=O)N[C@@H](C)C(=O)N[C@@H](CCC(N)=O)C(=O)N[C@@H](CO)C(=O)N[C@@H](Cc1c[nH]c2ccccc12)C(=O)N[C@@H](CC(N)=O)C(=O)NCC(=O)N[C@@H](CCC(N)=O)C(=O)N1CCC[C@H]1C(=O)N[C@@H](Cc1c[nH]c2ccccc12)C(=O)N[C@@H](CC(N)=O)C(=O)N[C@@H](C)C(=O)N[C@@H](C)C(=O)N1CCC[C@H]1C(=O)N[C@@H](CCCCN)C(=O)O)[C@@H](C)O [m6-10w] (H-WTNPTWSSQAWTAQSWNGQPWNAAPK-OH; N-terminus and C-terminus assumed)
peptide solubility [1]: relatively higher solubility

NANOG WT
proximity of separate DNAs [2]: ≤ 70 Å
cross-correlation of differentially labeled DNAs [3]: significant cross-correlation
lowest concentration giving cross-correlation [3]: ~30 nM
Kd ([4]; full-length NANOG, for comparison, read-out: dsDNA affinity): 0.03 to 0.06 µM

WCTQSWNNQAWNSPFYNCGEESK [6-8w, human C-terminal WR repeats]
aggregation kinetics [5]: slower aggregation kinetics
peptide solubility [1]: relatively higher solubility

WNTQTWCTQSWNNQAWNSPFYNCGEESK [5-8w, human C-terminal WR repeats]
aggregation kinetics [5]: slower aggregation kinetics
peptide solubility [1]: relatively higher solubility

WSNQTWNNSTWSNQTQNIQSWSNHSRRRKK [1-4wRK]
peptide concentration giving completely bound peptide:nucleic acid complexes [6]: 60 to 250 nM
peptide concentration giving visible precipitates of fluorescent proteins [7]: ~0.3 mg/mL
aggregation without DNA (DNA; 0.2 mg/mL peptide): aggregates even without DNA
potency in driving DNA:peptide LLPS (DNA; turbidity Abs350 nm>0.07 = LLPS positive): more effective than TAT at higher concentrations of DNA
cross-correlation (DNA bridging) ([8]; 0.9 μM peptides): small degree of cross-correlation
lowest peptide concentration giving cross-correlation ([8]; FCCS titration): 1 µM
Kd ([4]; fEMSA, read-out: dsDNA affinity (50% free DNA)): ~1 µM
cooperativity n (GATA6 dsDNA): 3.3±1.2
binding constant Ka (GATA6 dsDNA; n=3): 340 ± 110 nM
